The subject of one experiment is guinea pig ileum. From the text: (§1) A change of one unit of pA2 value represents an order of magnitude change in potency.
(§2) On isolated smooth muscles, agonist potency is given as percent of BK potency; antagonist potency is given as pA2, and is underlined. In blood pressure assays, the number is the dose of peptide in micrograms that causes 50% reduction in the effect of BK intraarterially administered as a bolus mixture in a 500 g male rat; Ag indicates unquantitated agonist activity; Ant indicates unquantitated antagonist activity.

The next experiment relates to isolated rat uterus.
From the text: as §1, §2

Experiment [1] deals with hypotensive action of bradykinin. Briefly: Blood pressure in the anesthetized rat: inhibition of hypotensive action of bradykinin. It counts as in vivo. Particulars: intraarterial bolus mixture with BK, 500 g male rat; indicated approximately.
From the text: Potencies for the antagonists in this assay are not reported precisely, but rather are indicated approximately.
as §2

The target in another experiment is T1, B1 receptors (Oryctolagus cuniculus, UniProt P48748).
T1 construct: The thorax was opened and the thoracic aorta carefully removed; from tissue; host or cells: rabbit thoracic aorta spiral strips
T1 sequence (P48748 1-352): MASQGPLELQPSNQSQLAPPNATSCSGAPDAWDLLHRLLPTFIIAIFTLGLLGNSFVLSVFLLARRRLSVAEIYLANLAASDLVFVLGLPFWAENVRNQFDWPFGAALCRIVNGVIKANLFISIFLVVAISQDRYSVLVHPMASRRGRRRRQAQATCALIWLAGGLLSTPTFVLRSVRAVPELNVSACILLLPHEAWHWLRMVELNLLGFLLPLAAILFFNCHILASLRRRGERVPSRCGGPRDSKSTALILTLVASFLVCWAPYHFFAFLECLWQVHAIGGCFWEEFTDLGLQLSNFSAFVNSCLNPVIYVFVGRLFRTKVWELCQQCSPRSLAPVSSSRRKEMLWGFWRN
Briefly: B1 receptor bioassay, rabbit aorta strips contracted with des-Arg9-BK. It counts as cell-based. Particulars: 50% reduction of sustained contraction to 10^-7 M des-Arg9-BK; read-out: Rabbit Aorta p IC50 B1 receptors (converted). The protocol: Male New Zealand white rabbits, weight range 2-3 kg, were killed by an overdose of pentobarbital i.v. The thorax was opened and the thoracic aorta carefully removed. […] The tissues were placed under 1 gm isometric tension and allowed to equilibrate for 1H. At time 1h, a concentration-effect curve was constructed to the selective B1 agonist des-Arg^9 -BK. This was repeated at time 3 hours. […] Once the contraction was sustained, the compound to be assayed was applied to the tissue bath in a cumulative manner. The concentration of the compound which produced a 50% reduction of the sustained contraction was calculated. The negative logarithm of this concentration was calculated and expressed as the […].

The next experiment addresses T2, Human B2 receptors (Homo sapiens, UniProt P30411).
T2 construct: expressed in transfected cells; membranes used
T2 sequence (P30411 1-364 isoform P30411-2): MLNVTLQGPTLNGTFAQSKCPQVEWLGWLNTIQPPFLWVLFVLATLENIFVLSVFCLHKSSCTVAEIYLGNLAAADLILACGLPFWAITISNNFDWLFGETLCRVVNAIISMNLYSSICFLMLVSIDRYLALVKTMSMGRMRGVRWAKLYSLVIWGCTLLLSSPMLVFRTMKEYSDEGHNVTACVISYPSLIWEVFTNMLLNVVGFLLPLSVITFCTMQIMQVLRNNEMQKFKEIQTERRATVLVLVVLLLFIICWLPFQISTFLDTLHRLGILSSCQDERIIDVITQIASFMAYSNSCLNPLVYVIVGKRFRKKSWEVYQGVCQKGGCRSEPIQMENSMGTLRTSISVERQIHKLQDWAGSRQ
Briefly: Human B2 binding, cloned receptor in CHO cell membranes, 3H-bradykinin. The following applies: CHO clone S34f membranes, 0.3 nM 3H-Bradykinin, room temperature 45 min; read-out: Human Receptor Clone B2 receptor binding (Ki) (converted). From the text: Human B2 receptors were cloned and expressed in Chinese hamster ovary cells. RNA was isolated from human lung fibroblasts (CCD-16 LU obtained from the ATCC) using the method of Chirgwin et al (Biochemistry 18:5294 (1979)). The RNA was transcribed into cDNA using MMLV reverse transcriptase, the primer […] and the procedure of Maniatis (Molecular Cloning Cold Spring Harbor Laboratory (1982)). The human B2 receptor cDNA was selectively amplified using nested PCR. The first round PCR used the two primers […] and […] and Taq DNA polymerase (Promega). Twenty-five rounds of PCR were done using the following conditions: 94° C., 1 minute for denaturation, 50° C., 1 minute for annealing followed by 72° C., 3 minutes for extension. Excess primers were removed with a Centricon 30 miniconcentrator. A portion of this first round reaction was used as a template in a second round of PCR using the following primers […] and […]. The number of rounds of PCR and the conditions were the same as those used for the first round. The DNA obtained after this second round was digested with the restriction enzymes Hind III and Xba I using standard methodology. Cesium chloride-purified pRc/CMV (Invitrogen) was also digested with Hind III and Xba I using standard methodology. The products of the two digests were resolved on a 1% low melt agarose gel. The human B2 receptor DNA (approximately 1.1 kb) and the pRc/CMV DNA (approximately 5.5 kb) were excised from the gel. The gel slices containing these DNAs were heated at 65° C. and aliquots combined in a reaction containing T4 DNA ligase. The reaction was incubated overnight at 15° C.
An aliquot of this reaction was used to transform frozen competent E. coli DH5α cells (GibcoBRL). Transformants containing the human B2 receptor DNA were selected on LB+amp plates. One of the transformants was selected and the sequence of the human B2 receptor DNA insert determined using the Sequenase enzyme (United States Biochemical) according to the manufacturer's instructions. This sequence was compared to the sequence of Hess et al (Biochemical and Biophysical Research Communications 184:260 1992)). […] The human BK2 receptor-pRc/CMV plasmid was transfected into CHO-k1 cells using the Lipofectamine reagent (GibcoBRL).
Cells containing the receptor were grown to confluence and harvested by scraping into PBS and homogenized. Membranes were prepared by centrifugation in 25 mM TES pH6.8 containing 1 mM 1.10 Phenanthroline. The final pellet was resuspended in assay buffer (25 mM TES, 1 mM 1.10 Phenanthroline, 1 mM DTT, […] Captopril, 0.1% BSA pH=6.8) and frozen. […] Incubation was carried out at room temperature for 45 min. The assay was terminated by filtration through a polyethylenimine soaked G-A filter. Radioactivity was measured on a Wallac 1450 MicroBeta LSC.
The Kd for the receptor was determined by kinetic analysis of on and off rates utilizing a single exponential decay off rate. Ki 's for compounds were calculated using the following equation: Ki =IC50 /(1+[L]/Kd), where L=free ligand concentration.

Setting [2] is: guinea pig ileum, vs double ED50 dose of bradykinin.

Where two headings read alike, the source gives them in different places. Square brackets hold non-standard residues; d marks the D form. Peptide text beside a SMILES is read from it. * marks the point of attachment. Adamantane1carbonyl = O=C(C12CC3CC(CC(C3)C1)C2)*; Oic = O=C(O)[C@@H]1C[C@@H]2CCCC[C@@H]2N1; dIgl = N[C@@H](C(=O)O)C1Cc2ccccc2C1; Hyp = O=C(O)[C@@H]1C[C@@H](O)CN1 A value given as a limit tells only on which side of the number the result lay.

Usually IC50 stands for the concentration that inhibits the measured activity by half. A word on the Ki: it is a dissociation constant, usually derived from enzyme kinetics or from competition with a known ligand.

For `N=C(N)NCCC[C@@H](N)C(=O)N[C@@H](CCCNC(=N)N)C(=O)N1CCC[C@H]1C(=O)N1C[C@H](O)C[C@H]1C(=O)NCC(=O)N[C@@H](Cc1cccs1)C(=O)N[C@@H](CO)C(=O)N[C@@H](C(=O)N(CC(=O)N[C@@H](CCCNC(=N)N)C(=O)O)C1Cc2ccccc2C1)C1Cc2ccccc2C1` [Compound 28, DArg-Arg-Pro-Hyp-Gly-Thi-Ser-DIgl-Nigb-Arg], the “Ileum Activity, antagonist potency given as pA2” value (shortened to “Ileum Activity”) in the experiment on guinea pig ileum (setting [2]) is reported as 6.5. In the experiment on isolated rat uterus (isolated rat uterus), the “Uterus Activity, agonist potency given as percent of BK potency” value came to 48.6%. The “Blood Pressure: dose of peptide that causes 50% reduction in the effect of BK” value in experiment [1] was found to be 0.05 micrograms.
For the molecule `N=C(N)NCCC[C@H](NC(=O)[C@@H]1C[C@@H]2CCCC[C@@H]2N1C(=O)[C@H](NC(=O)[C@H](CO)NC(=O)[C@@H](NC(=O)CNC(=O)[C@@H]1C[C@@H](O)CN1C(=O)[C@@H]1CCCN1C(=O)[C@H](CCCNC(=N)N)NC(=O)[C@@H](CCCNC(=N)N)NC(=O)C12CC3CC(CC(C3)C1)C2)C1Cc2ccccc2C1)C1Cc2ccccc2C1)C(=O)O` [Compound 2, Aca-DArg-Arg-Pro-Hyp-Gly-Iglb-Ser-DIg lb-Oic-Arg], the “Ileum Activity” value in the experiment on guinea pig ileum amounted to 7.8. In addition, the “Uterus Activity, antagonist potency given as pA2” value (from here on “Uterus Activity … as pA2”) in the experiment with isolated rat uterus is 7.5. Further, the IC50 at B1 receptors was 1780 nM. At Human B2 receptors, the inhibition constant Ki is 0.0447 nM.
Turning to `N=C(N)NCCC[C@H](NC(=O)[C@@H]1C[C@@H]2CCCC[C@@H]2N1C(=O)[C@H](NC(=O)[C@H](CO)NC(=O)[C@H](Cc1ccccc1)NC(=O)CNC(=O)[C@@H]1C[C@@H](O)CN1C(=O)[C@@H]1CCCN1C(=O)[C@H](CCCNC(=N)N)NC(=O)[C@@H](CCCNC(=N)N)NC(=O)C12CC3CC(CC(C3)C1)C2)C1Cc2ccccc2C1)C(=O)O` [Compound 53, Aca-DArg-Arg-Pro-Hyp-Gly-Phe-Ser-DIglb-Oic-Arg] (Adamantane1carbonyl-[dR]RP[Hyp]GFS[dIgl][Oic]R-OH), the “Ileum Activity” value in the experiment on guinea pig ileum is 7.4. For the same molecule, the “Uterus Activity … as pA2” value with isolated rat uterus was found to be 8.2. Further, the IC50 at B1 receptors was 1260 nM. Besides, the Ki at Human B2 receptors was 0.0141 nM.
“DArg-Arg-Pro-Hyp-Gly-Thi-Ser-DIglb-Dic-Arg [Compound 41]”: the “Blood Pressure: dose of peptide that causes 50% reduction in the effect of BK” value in experiment [1] turned out to be 50 micrograms.
Turning to `N=C(N)NCCC[C@@H](N)C(=O)N[C@@H](CCCNC(=N)N)C(=O)N1CCC[C@H]1C(=O)N1C[C@H](O)C[C@H]1C(=O)NCC(=O)N[C@@H](Cc1cccs1)C(=O)N[C@@H](CO)C(=O)N1Cc2ccccc2C[C@@H]1C(=O)N(CC(=O)N[C@@H](CCCNC(=N)N)C(=O)O)C1Cc2ccccc2C1` [Compound 23, DArg-Arg-Pro-Hyp-Gly-Thi-Ser-DTic-Nigb-Arg], the “Ileum Activity” value with guinea pig ileum worked out at 7.2. In the experiment with isolated rat uterus, the “Uterus Activity … as pA2” value is 8.3. In addition, on B1 receptors, the IC50 was over 10000 nM. In addition, the Ki at Human B2 receptors was 0.0158 nM.
Take “Aca-DArg-Arg-Pro-Hyp-Gly-Thi-Ser-DHigb-Oic-Arg [Compound 124]”: in the experiment with guinea pig ileum (setting [2]), the “Ileum Activity” value worked out at 7.7. In experiment [1], the “Blood Pressure: dose of peptide that causes 50% reduction in the effect of BK” value is reported as 0 micrograms.

The values are drawn from patent US5648336A (University of Colorado, priority 1994, dated 1997).
